Molecules are shown by their SMILES. Several values for one entry are separate records, joined by “and”; a condition that tells them apart may be missing. Equal values may be shown once. Marks after values point to notes of the source that are not given here.

Data set [1] can be described thus: Ex-vivo transfer of essential-oil constituents through the skin in Franz diffusion cells. The class given is in vitro ADME, rat. The settings on record: for Accumulated concentration transferred through the skin: from gum karaya-Lavandula angustifolia essential oil patch (7.5% oil); for Accumulated concentration diffused through the skin: mixture of Lavandula angustifolia essential oil and almond oil rubbed on the skin. As to the method:
Ex-vivo release studies were performed in Franz diffusion cells (FCs) (PermeGear, Hellertown, Pa.). Stomach skin pieces (1.2 cm×1.2 cm) from a male rat, which were stored in the freezer for 1 month, were thawed at room temperature and placed in glass FCs. The surface area for absorption was 0.64 cm2. The FCs were thermoregulated with a water jacket at 32° C. The 4.5-ml volume of the receptor chamber of the FC was filled with a receptor solution containing 5% (w/v) bovine serum albumin (BSA) diluted with phosphate buffer pH 7.4. […] The receptor solution was continuously agitated with a magnetic stirrer. During the experiments, the donor compartments and sampling arms were sealed to prevent evaporation. The fluid in the receptor chamber was removed after different periods of time (0, 6, 12, 24, 36 and 48 h) and replaced with fresh phosphate buffer solution. Samples were stored at 4° C. after sampling, prior to analysis. Samples were analyzed in a gas chromatograph (Agilent Technologies, Santa Clara, Calif.) with a WAX 30 m×0.32 mm×0.25 μm (Agilent) column.
Transdermal delivery of essential-oil components through rat skin from both lavender essential oil, which includes a high proportion of terpenoids, and Valencia orange essential oil, which includes a considerable amount of terpene, entrapped within gum-karaya-based patches, was examined. In addition to the regular patch adhered to the skin to be tested for essential-oil delivery by the traditional FCs and by in vivo tests (detailed below), another experiment was performed in which the skin was smeared with an almond-essential oil mixture, in order to partially imitate the situation in which the skin is massaged in an aromatherapy session. All experiments were conducted at ambient temperature and the inclusion of the essential oil as part of the almond oil-essential oil mixture (for the massage-like simulation) was equal in quantity and proportion to the inclusion of essential oil within the patch.

The conditions of data set [2]: cited from earlier work.
Data set [3] in a line: In-vivo experiment with WAX column, constituents in blood. The arrangement: species or system rat. The settings on record: 7.5% lavender oil patch on abdomen; split injection. From the text:
Male Sprague-Dawley rats, weighing 300-350 g, were used in the studies (Harlan, Rehovot, Israel). The experimental protocols were approved by the Hebrew University of Jerusalem Committee on the Use and Care of Animals. Rats were maintained under specified-pathogen-free (SPF) conditions and were allowed to acclimate to the environment for at least 7 days before their use in the study. Rats were anesthetized and the fur on their stomach shaved prior to exposure. Gum karaya patches with and without lavender essential oil were applied to the rat's stomach skin. Each rat was housed in an individual cage in order to prevent oral contamination of the essential oil by one rat eating another's patch. Blood samples (0.5 ml) were taken at 0, 12, 24, 36, 48 and 60 h from a nick at the tip of tail to determine contents of essential-oil components. Rats were restrained and the tail was gently massaged to facilitate blood collection. Blood samples were collected in vials containing 0.1 ml heparin (100 kU, Sigma). A 10-μl volume of aqueous linalyl isovalerate stock solution was added as an internal standard to each blood sample and samples were stored at −80° C. […] Urine samples were similarly analyzed by gas chromatography (GC). […]
Patches that included lavender essential oil were adhered to the abdomen skin for 60 h. […] Between 12 and 36 h, a similar, non-significant change in levels was detected. […]

As to `C=CC(C)(CCC=C(C)C)OC(C)=O` (centres unmarked) [Linalyl acetate], the “% diffused (of initial amount of entrapped essential oil)” value (from here on “% diffused”) in data set [1] (Almond-lavandula mixture, 0 h) was 0.00^a %; in data set [1] (Almond-lavandula mixture, 6 h), 0.107 ± 0.150^a %; in data set [1] (Almond-lavandula mixture, 12 h) it was 0.153 ± 0.216^a %; in data set [1] (Almond-lavandula mixture, 24 h), 0.246 ± 0.344^a %; in data set [1] (Lavandula patch, 0 h), 0.00^a %; in data set [1] (Lavandula patch, 6 h), 0.008 ± 0.011^a %. Further, the “% diffused” value in data set [1] (Lavandula patch, 12 h) is on record as 0.013 ± 0.018^a %. Besides, the figures for the “Accumulated concentration transferred through the skin” value in data set [1] (6 h), in data set [1] (12 h) and in data set [1] (24 h) were 0.15 ± 0.14^a mg/L, 0.26 ± 0.25^a mg/L and 0.37 ± 0.01^a mg/L, respectively. Further, the “Accumulated concentration diffused through the skin” value is listed as 2.30 ± 2.24^a mg L^−1 in data set [1] (6 h), 3.33 ± 3.23^a mg L^−1 in data set [1] (12 h) and 5.62 ± 4.10^a mg L^−1 in data set [1] (24 h). Further, the “Log P” value in data set [2] is given as “about 4”.

As for `C=CC(C)(O)CCC=C(C)C` (centres unmarked) [Linalool], the “% diffused” value in data set [1] (Almond-lavandula mixture, 0 h) was 0.00^a %; in data set [1] (Almond-lavandula mixture, 6 h) it was 1.29 ± 1.53^a %; in data set [1] (Almond-lavandula mixture, 12 h) it was 2.01 ± 2.09^a %; in data set [1] (Almond-lavandula mixture, 24 h), 3.93% and 3.93 ± 0.01^a %; in data set [1] (Lavandula patch, 0 h), 0.00^a %; in data set [1] (Lavandula patch, 6 h), 0.73 ± 0.16^b %. Moreover, the “% diffused” value in data set [1] (Lavandula patch, 12 h) is reported as 1.53 ± 0.03^c %; in data set [1] (Lavandula patch, 24 h) it was 2.74 ± 0.31^d %. The “Accumulated concentration transferred through the skin” value in data set [1] (6 h) was 16.49 ± 2.81^a mg/L; in data set [1] (12 h), 34.46 ± 1.20^b mg/L; in data set [1] (24 h) it was 61.64 ± 3.83^c mg/L. For the same compound, the “Accumulated concentration diffused through the skin” value in data set [1] (6 h) is 31.07 ± 36.72^a mg L^−1; in data set [1] (12 h), 48.34 ± 50.41^a mg L^−1; in data set [1] (24 h), 94.78 ± 0.19^a mg L^−1. Also, the figures for the Calculated steady-state flux in data set [1] (rubbing in a mixture with almond oil) and in data set [1] (transferred from a lavender essential oil patch) were 0.027 mg.cm^−2 h^−1 and 0.018 mg.cm^2 h^−1, respectively. The “Level in blood after 60 h” value in data set [3] is on record as “no traces”. The “Log P” value in data set [2] is listed as “about 3”.
